Like-named read-outs stand apart in the source and are kept apart here.
Key:
[1] = system: Dentate Gyrus/CA3 region of aMCI patients; assay: fMRI activity in DG/CA3 during lure stimuli correctly identified as similar; assay type: in vivo, human; settings: aMCI subjects
[2] = cited from earlier work
[3] = system: Age-Impaired (AI) Long-Evans rats; assay: Morris Water Maze retention trial, levetiracetam in aged-impaired rats; assay type: in vivo, rat
Protocol: The MWM apparatus consists of a large, circular pool (diameter 1.83 m; height, 0.58 m) filled with water (27° C.) that is made opaque through the addition of non-toxic pigment or some other substance. In the typical “hidden platform” version of the test, rats are trained to find a camouflaged white escape platform (height, 34.5 cm) that is positioned in the center of one quadrant of the maze about 1.0 cm below the water surface. This platform can be retracted to the bottom of the tank or raised to its normal position from outside the maze during behavioral testing. The location of the platform remains constant from trial to trial. Because there are no local cues that mark the position of the platform, the rat's ability to locate it efficiently from any starting position at the perimeter of the pool depends on using information surrounding the maze. The maze is surrounded by black curtains to which white patterns are affixed to provide a configuration of spatial cues. A second platform (height 37.5 cm), with its surface painted black is elevated 2 cm above the water surface during cue training to control for factors unrelated to cognition. The behavior of a rat in the pool is recorded by a camera that is suspended 2.5 m above the center of the pool. The camera is connected to a video tracking system (HVS Image Advanced Tracker VP200) and a PC computer running HVS software developed by Richard Baker of HVS Image, Hampton, UK. The MWM protocol is optimized for sensitivity to the effects of aging on cognition and for measures of reliable individual differences within the aged population of out-bred Long-Evans rats (Gallagher et al. Behav. Neurosci. 107:618-626, (1993)). Rats receive three trials per day for 8 consecutive days, using a 60 sec inter-trial interval. On each training trial, the rat is released into the maze from one of four equally spaced starting positions around the perimeter of the pool. […] At the completion of the protocol using the hidden platform, rats are assessed for cue learning using the visible platform. […]

aMCI subjects = assay: explicit 3-alternative forced choice task; assay type: in vivo, human
Excerpt: See Folstein et al., J Psychiatric Res 12: 189-98, (1975); Robbins et al., Dementia 5: 266-81, (1994); Rey, L′examen clinique en psychologie, (1964); Kluger et al., J Geriatr Psychiatry Neurol 12:168-79, (1999); Marquis et al., 2002 and Masur et al., 1994. Also see Buchanan, R. W., Keefe, R. S. E., Umbricht, D., Green, M. F., Laughren, T., and Marder, S. R. (2011) The FDA-NIMH-MATRICS guidelines for clinical trial design of cognitive-enhancing drugs: what do we know 5 years later? Schizophr. Bull. 37, 1209-1217. Another example of a cognitive test in humans is the explicit 3-alternative forced choice task. In this test, subjects are presented with color photographs of common objects consisting of a mix of three types of image pairs: similar pairs, identical pairs and unrelated foils. The second of the pair of similar objects is referred to as the “lure”. These image pairs are fully randomized and presented individually as a series of images. Subjects are instructed to make a judgment as to whether the objects seen are new, old or similar. A “similar” response to the presentation of a lure stimulus indicates successful memory retrieval by the subject.
The activity of the subject's medial temporal lobe is measured by functional MRI during the subject's participation in an explicit 3-alternative forced choice task, where participants view novel, repeated and similar (“lure”) stimuli. The Psychophysics Toolbox extensions in Matlab 7.0 (The MathWorks, Natick, Mass.) is used for stimulus presentation and behavioral data collection. Stimuli are color photographs of common objects. Each participant undergoes a series of testing runs during the functional imaging sessions, each run consisting of a mix of three types of image pairs: similar pairs, identical pairs and unrelated foils. These image pairs are fully randomized throughout the run and presented individually as a series of images (see FIG. 10A). Participants are instructed to make a judgment as to whether each object seen is new, old or similar. […]

[4] = levetiracetam 62.5 mg BID for two weeks
[5] = levetiracetam 125 mg twice a day for two weeks vs placebo
[6] = levetiracetam 250 mg BID for two weeks

With `CC[C@@H](C(N)=O)N1CCCC1=O` [levetiracetam, (2S)-2-(2-oxopyrrolidin-1-yl)butanamide] the “DG/CA3 hyperactivity (fMRI)” value [1, 4] was “does not significantly reduce”, the “DG/CA3 activity during successful memory judgments (fMRI)” value [1, 5] was “reduces DG/CA3 hyper-activity” and the “DG/CA3 hyperactivity (fMRI)” value [1, 6] was “does not significantly reduce”. The Plasma half-life ([2]; expected in elderly due to decreased renal function) was 9 to 10 h, the “time of peak plasma concentrations” value ([2]; following oral administration) was “about 1 hour” and the “time to steady state” value ([2]; multiple twice-daily dosing) was 2 days. The Plasma half-life ([2]; oral administration) was “approximately 7±1 hour”, the “absorption after oral administration” value ([2]; oral administration) was “rapidly and almost completely absorbed” and the “effect of food on bioavailability” value ([2]; oral administration) was “not affected by food”. The “time spent in the target quadrant (performance vs vehicle)” value ([3]; levetiracetam 5 mg/kg/day i.p., retention trial 24 hours after two training days) was “did not significantly improve”, the “time spent in the target annulus” value ([3]; levetiracetam 10 mg/kg/day i.p., retention trial) was “effectiveness of the 10 mg/kg/day levetiracetam treatment was also seen” and the “time spent in the target quadrant, percentage of total swimming time” value ([3]; levetiracetam 10 mg/kg/day i.p., retention trial 24 hours after two training days) was “approximately 35%”. For the same molecule, the “performance in the explicit 3-alternative forced choice task” value (aMCI subjects; [4]) was “improves significantly”, the “performance in the explicit 3-alternative forced choice task” value (aMCI subjects; [5]) was “improves significantly” and the “performance in the explicit 3-alternative forced choice task” value (aMCI subjects; [6]) was “does not significantly improve”.
